Measured values as given in article PMC3835719 (MedChemComm, 2013).

Assays:
[1] = test system: HT-29 human colon cancer cells; assay: MTT cell growth inhibition, HT-29 colon cancer cells; type: cell-based; settings: for Potency enhancement, Colon HT-29: ratio of IC50 values parent NSAID/NOSH-NSAID, 24 hr
[2] = test system: Jurkat T human leukemia cells; assay: MTT cell growth inhibition, Jurkat T leukemia cells; type: cell-based; settings: ratio of IC50 values parent NSAID/NOSH-NSAID, 24 hr
[3] = test system: MCF-7 (estrogen receptor positive) breast cancer cells; assay: MTT cell growth inhibition, MCF-7 breast cancer cells; type: cell-based, human; settings: ratio of IC50 values parent NSAID/NOSH-NSAID, 24 hr
[4] = test system: BxPC-3 human pancreatic cancer cells; assay: MTT cell growth inhibition, BxPC-3 pancreatic cancer cells; type: cell-based; settings: ratio of IC50 values parent NSAID/NOSH-NSAID, 24 hr
[5] = test system: human mammary epithelial cell line (HMEpC); assay: Cell growth inhibition, normal mammary epithelial cells; type: cell-based; settings: IC50 at 24h, HMEpC vs MCF-7
[6] = test system: human primary pancreatic epithelial cells (HPDE, ACBRI 515); assay: Cell growth inhibition, normal pancreatic epithelial cells; type: cell-based; settings: 24 h, read-out: IC50 for cell growth inhibition, Pancreatic Epithelial HPDE (ACBRI 515)
[7] = test system: HT-29 human colon cancer cells; assay: Proliferation by PCNA antigen expression; type: cell-based; settings: at IC50 for cell growth inhibition, 24 hrs
[8] = test system: HT-29 human colon cancer cells; assay: Cell cycle phases by PI staining and flow cytometry; type: cell-based; settings: at IC50
[9] = test system: human cancer cell lines of colon, breast, pancreas, and leukemia; assay: MTT cell growth inhibition, panel of four cancer cell lines; type: cell-based; settings: ratio of IC50 values parent/NOSH compound, 24 h

| Compound | Potency enhancement, Colon HT-29 [1] | Potency enhancement, Leukemia Jurkats [2] | Potency enhancement, Breast MCF-7 [3] | Potency enhancement, Pancreas BxPC-3 [4] | Fold more potent in breast cancer cell line (MCF-7) than in normal HMEpC cells [5] | IC50 [6] [µM] | Reduction of proliferation (PCNA expression) [7] | Mode of cell cycle arrest [8] | Enhanced potency over parent compound, range over the cancer cell lines [9] | Fold more potent than the combination (sum of its parts) ([1]; HT-29, intact molecule vs naproxen plus SNAP and ADT-OH) |
| --- | --- | --- | --- | --- | --- | --- | --- | --- | --- | --- |
| CC1=C(CC(=O)Oc2ccc(OC(=O)CCCO[N+](=O)[O-])c(C(=O)Oc3ccc(-c4cc(=S)ss4)cc3)c2)c2cc(F)ccc2/C1=C\c1ccc([S+](C)[O-])cc1 (stereo not drawn) [NOSH-SUL, (Z)-4-(3-thioxo-3H-1,2-dithiol-5-yl) phenyl 5-(2-(5-fluoro-2-methyl-1-(4-(methylsulfinyl)benzylidene)-1H-inden-3-yl)acetoxy)-2-((4-(nitrooxy)butanoyl)oxy) benzoate] | ~9,000 | ~2,500 | ~9,650 | ~8,200 | about 150 fold | > 25 | approximately 50% | G2/M block | 2,500-9,650 fold |  |
| C[C@H](C(=O)Oc1ccc(-c2cc(=S)ss2)cc1)c1ccc2cc(OC(=O)CCCO[N+](=O)[O-])ccc2c1 [NOSH-NAP, (S)-6-(1-oxo-1-(4-(3-thioxo-3H-1,2-dithiol-5-yl)phenoxy)propan-2-yl) naphthalen-2-yl 4-(nitrooxy) butanoate] | ~34,000 | ~25,000 | ~20,000 | ~16,000 | approximately 115 fold |  | approximately 50% | G0/G1 cell cycle block | 16,000-34,000 fold | approximately 8000 fold |
